Experimental data: patent US20060115502A1, “Cosmetic composition based on cirsimarin” (GATTEFOSSE SAS, priority 2003, published 2006)

Experiments:
lipolysis = settings: documents by Nogowski and Jacobson; cited from earlier work
A1 receptor = molecular target: T1, A1 receptor (Homo sapiens, UniProt P30542); settings: from literature; cited from earlier work
T1 sequence (P30542 1-326): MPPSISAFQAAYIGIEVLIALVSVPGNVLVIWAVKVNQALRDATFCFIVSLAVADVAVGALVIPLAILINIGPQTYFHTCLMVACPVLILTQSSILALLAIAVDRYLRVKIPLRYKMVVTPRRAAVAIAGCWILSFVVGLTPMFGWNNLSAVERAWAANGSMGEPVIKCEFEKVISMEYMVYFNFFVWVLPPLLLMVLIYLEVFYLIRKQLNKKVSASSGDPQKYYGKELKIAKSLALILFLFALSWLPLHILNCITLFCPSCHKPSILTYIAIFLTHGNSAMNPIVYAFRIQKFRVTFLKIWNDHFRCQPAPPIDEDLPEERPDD

isolated adipocytes = test: Lipolytic activity in vitro on isolated adipocytes (fatty acids released, NEFA C kit); assay type: cell-based, rats; settings: cirsimarin tested at 0.5 mM and 0.1 mM; 1 hour at 37° C.; FIG. 2
Procedure: a. Positive references and products to be assessed • Noradrenalin (syn. Norepinephrine NE): this molecule, with a molar mass of […], is assessed at the final concentration of 1 μM in a Krebs-Ringer buffer at 4% albumin. • Caffeine: this molecule, with a molar mass of 194.2 g, is assessed at the final concentration of 0.5 mM in a Krebs-Ringer buffer at 4% albumin. • Theophylline: this molecule, with a molar mass of 180.2, is assessed at the final concentration of 0.5 mM in a Krebs-Ringer buffer at 4% albumin. • Cirsimarin: this molecule, with a molar mass of 476.44, is tested at 0.5 mM and 0.1 mM. This molecule is first solubilized in a mixture of solvents: NaOH 0.2 M/DMSO (95/5; v/v). […]
The lipolytic activity is measured by the quantity of fatty acids released; for this, a NEFA C (Non Esterified Fatty Acid/Colorimetric) colorimetric dosage kit sold by Wako® Chemical GmbH is used.
The quantity of fatty acids present in tubes 0 minus that present in tubes 00 corresponds to the basal lipolysis of the adipocytes in the buffer. The quantity of fatty acids present in tubes 0 solvent minus that present in tubes 00 corresponds to the basal lipolysis of the adipocytes in the buffer containing the cirsimarin solution solvent. The quantity of fatty acids released in reaction tubes minus that present in tubes 00 corresponds to the lipolysis induced by the molecules studied.

| Structure (SMILES) | lipolytic activity (lipolysis) | A1 receptor antagonist properties (A1 receptor) | lipolytic activity (quantity of fatty acids released) (isolated adipocytes) |
| --- | --- | --- | --- |
| O=c1c(-c2ccc(O)cc2)coc2cc(O)cc(O)c12 [genistein] | negligible lipolytic activity | identified as an A1 receptor antagonist |  |
| COc1cc2oc(-c3ccc(O[C@@H]4O[C@H](CO)[C@@H](O)[C@H](O)[C@H]4O)cc3)cc(=O)c2c(O)c1OC [cirsimarin, 5-hydroxy-6,7-dimethoxyflavone 4′-O-glucoside] |  | A1 receptor antagonist properties | proven in vitro lipolytic activity |
